Data published in patent US11384071B2, “Inhibitors of mechanotransduction to treat pain and modulate touch perception” (Max-Delbrück-Centrum für Molekulare Medizin in der …, priority 2016, dated 2022).

Legend:
[1] = test system: Piezo1 currents in N2A cells; test: Pillar array patch-clamp analysis of mechanotransduction in N2A cells; format: cell-based
Protocol: (§1) Whole-cell, patch-clamp recordings were conducted as previously described 5-7, using patch pipettes with a tip resistance of 3-6 MΩ, filled with a solution of: 110 mM KCl, 10 mM NaCl, 1 mM MgCl2, 1 mM EGTA and 10 mM HEPES, adjusted to pH 7.3 with KOH. (For experiments on DRG neurons 10 mM QX-314 was added to the pipette to block voltage-gated sodium channels 8 Extracellular solutions contained 140 mM NaCl, 4 mM KCl, 2 mM CaCl2, 1 mM MgCl2, 4 mM glucose, 10 mM HEPES, adjusted to pH 7.4 with NaOH. A Zeiss 200 inverted microscope and an EPC-10 amplifier in combination with Patchmaster software was used, data was analyzed using Fitmaster software (HEKA Electronik GmbH, Germany). Pipette and membrane capacitance were compensated using the auto function of Patchmaster, series resistance was compensated by at least 60% to minimize voltage errors. Mechanical stimuli were applied using a polished glass probe driven by the MM3A micromanipulator (Kleindiek Nanotechnik, Germany). Mechanical stimuli were applied by either; indenting the cell soma or by culturing cells on elastomeric pillar arrays and applying the stimulus to the cell-substrate interface by deflecting an individual pilus.
Briefly, elastomeric pillar arrays of defined dimensions were cast in PDMS with an elasticity of 2 MPa. Cells cultured on these arrays were monitored using whole-cell patch-clamp whilst a glass probe was used to apply repeated deflections (of differing magnitudes) to an individual pilus directly beneath the cell. Images were obtained of the pilus before and after deflection and images were analyzed off-line to determine the exact deflection for each data point. Images were obtained using a 40×LD objective and a CoolSNAP EZ CCD camera. Images were analyzed off-line using Igor software (WaveMetrics, USA). The collection of stimulus-response data using pillar arrays generates data sets with variation in both x and y. In order to effectively compare groups for each cell studied we binned response data by stimulus size in the following bins: 0-10, 10-50, 50-100, 100-250, 250-500, 500-1000. For each cell, current amplitudes within each bin were averaged and then bins averaged between cells—we then tested for significance by testing whether the current amplitude for a given stimulation range (i.e. bin) differed between samples. A power analysis was used to determine that moderate to strong effects between samples could be detected with a sample size >4. Data sets were in excess of this number. To distinguish mechanoreceptors from nociceptors in the mixed population of acutely prepared DRG neurons, the shape of the generated action potential (AP) was used. […] For quantitative analysis of mechanosensitivity we measured responses in the most sensitive sub-population of mechanoreceptors, previously defined as Typell mechanoreceptors (Poole et al., 2014). This population was identified as those cells with APs lacking a hump in the falling phase and a full width at half maximum (FWHM) of at least 0.7 ms, (average, ±s.e.m.: 0.9±0.04 ms)
Endogenously expressed STOML3 in N2A cells is required to maintain Piezo channel sensitivity to membrane deflection^2. By precisely deflecting defined areas of the membrane-substrate interface using a pillar array we could activate Piezo1 currents in N2A cells with displacements ranging from 100-1000 nm (FIG. 2a). Both OB-1 and OB-2 reduced the sensitivity of mechanosensitive currents to pillar deflection (FIG. 2b). […]

[2] = test system: mechanically gated currents in mechanoreceptors; test: Pillar array analysis of mechanically gated currents in DRG mechanoreceptors; format: cell-based, mouse; details: for sensitivity of mechanically gated currents in mechanoreceptors: acutely cultured mouse sensory neurons; for pillar deflections at which mechanically-gated currents are significantly inhibited: mechanoreceptors, FIG. 2e
Protocol: HEK-293 cells (passage numbers 4-20) were cultured in DMEM plus 10% fetal calf serum (FCS). Neuro2A (N2A) cells were cultured in DMEM/Opti-MEM media plus 10% FCS.—Sensory DRG neurons were isolated from 4 week old Mus musculus (C57Bl/6). Approximately 20 ganglia were collected from each mouse and individual cells were isolated by treating ganglia with […] collagenase IV for 30 min, followed by 1 ml of 0.05% trypsin, in PBS, for 5-20 min at 37° C. Enzyme-treated ganglia, in DMEM/F-12 media containing 10% Horse Serum (HS), were disrupted by gently passaging through a 20 G needle; cells were then collected by centrifugation (1000 rpm, 3 min), washed and finally re-suspended in DMEM/F-12, 10% HS media (at no point were neurotrophins added to the culture). Sensory neurons were then seeded on EHS-laminin coated substrate and cultured overnight. Experiments involving isolated sensory neurons were conducted within 24-36 hours of isolation of the cells.
as §1, with “Mechanical stimuli were applied by either; indenting the cell soma or by culturing cells on elastomeric pillar arrays and applying the stimulus to the cell-substrate interface by deflecting an individual pilus.” left out
Briefly, elastomeric pillar arrays of defined dimensions were cast in PDMS with an elasticity of 2 MPa. Cells cultured on these arrays were monitored using whole-cell patch-clamp whilst a glass probe was used to apply repeated deflections (of differing magnitudes) to an individual pilus directly beneath the cell. Images were obtained of the pilus before and after deflection and images were analyzed off-line to determine the exact deflection for each data point. […] Images were analyzed off-line using Igor software (WaveMetrics, USA). […] A power analysis was used to determine that moderate to strong effects between samples could be detected with a sample size >4. […] For quantitative analysis of mechanosensitivity we measured responses in the most sensitive sub-population of mechanoreceptors, previously defined as Typell mechanoreceptors (Poole et al., 2014).

Structure (SMILES)	sensitivity of mechanosensitive currents to pillar deflection [1]	pre-incubation time for maximal reduction of Piezo1 current amplitudes ([1]; 20 μM OB-1)	Hill coefficient ([1]; Piezo1 current)	IC50 ([1]; calculated from concentration dependence, read-out: IC50 on mechanically-activated (Piezo1) currents)	sensitivity of mechanically gated currents in mechanoreceptors [2]	pillar deflections at which mechanically-gated currents are significantly inhibited [2]
CCOC(=O)c1c(-c2ccccc2)oc2ccc(Oc3c([N+](=O)[O-])ncn3C)cc12 [OB-1, Ethyl 5-((1-methyl-4-nitro-1H-imidazol-5-yl)oxy)-2-phenylbenzofuran-3-carboxylate]	reduced	3 h	0.6	10 nM	substantially reduced	up to 250 nm
Cc1ccnc(NC(=O)CSc2nnc3c4ccccc4n(Cc4ccccc4)c3n2)c1 [OB-2]	reduced				substantially reduced	less than 50 nm
